Test results published in patent publication US7786097B2, “Tricyclic compounds, compositions and methods” (Pfizer Inc., priority 2007, dated 2010).

Assays:
LPS-induced serum TNFα = LPS-induced serum TNFα suppression, 28-day repeat dose mouse model; format: in vivo, Swiss Webster female mice; conditions: mice, oral gavage 28 days
Protocol: (§1) The compounds were weighed and suspended in a vehicle of 0.5% methylcellulose/0.025% tween 20 (Sigma-Aldrich, St. Louis, Mo.). Compound suspensions were homogenized using a Polytron PT-3100 tissue homogenizer to create a very fine suspension and were then sonicated for 10 minutes using a water bath sonicator. Aliquots of each suspension were made for daily dosing at 0.2 ml/dose. Swiss Webster female mice, 10-12 weeks old, 28-29 grams, (Taconic, Germantown, N.Y.) were used in accordance with the guidelines of the Institutional Animal Care and Use Committee and in accordance with NIH guidelines on laboratory animal welfare. Mice were acclimated in the Pfizer animal facility for three to seven days prior to being utilized in a study. […] Each treatment group contained 5-10 mice. To establish a dosing regimen for the studies, a pilot pharmacodynamic time course experiment was conducted to quantify TNFα repression after a single ED80 dose.
(§2) Body weights were measured on the first and last day of each experiment. Blood samples were obtained after three weeks of dosing for a steady-state pharmacokinetic (PK) analysis. To assess compound effects on LPS-induced TNFα, all mice received an intraperitoneal injection of LPS (Salmonella typhosa, L-7895; Sigma-Aldrich, St. Louis) 2.5 hr after the last dose on day 28. Mice were sacrificed 90 minutes after LPS administration. Serum samples were quantified for osteocalcin and TNFα using the multiplex assays (Linco Research, Inc, St. Charles, Mo.; Luminex 100, Austin, Tex.). Samples were diluted 1:20 and the assay was run according to manufacturer's instructions. The osteocalcin standard was purchased separately (Biomedical Technologies Inc., Stoughton, Mass.). Mice were fasted for 4 hours before serum was collected for TNFα, and osteocalcin levels. For each experiment, outliers were detected by calculating the number of standard deviations from the mean of the group. If the value being examined was more than 2.5 standard deviations from the mean, it was excluded from the rest of the calculations.
(§3) The individual mouse percent inhibition values were fit to a four-parameter logistic model using the dose mean for each group.
(§4) ED50 and ED80 values were obtained for the various endpoints using a four-parameter logistic fit. For compounds which were tested multiple times, ED50 and ED80 values were obtained using four-parameter logistic fits of the combined data from multiple experiments.

Serum osteocalcin = Serum osteocalcin suppression, 28-day repeat dose mouse model; format: in vivo, Swiss Webster female mice; conditions: mice
Protocol: as §1, §2, §3, §4

[1] = test system: Cortical bone formation rate (BFR); test: Cortical bone histomorphometry, bone formation rate (BFR); format: in vivo; conditions: AUC 0-4 hr, mice
Protocol: During the in-life portion of each study, mice received two intraperitoneal (i.p.) injections (20 mg/kg, […]) of calcein (C-0875; Sigma-Aldrich, St. Louis, Mo.) on days 1 and 26 for bone histomorphometry measurements. Calcein incorporates into the bone mineral and allows measurement of bone formation rate. Calcein was dissolved in 2% sodium bicarbonate. During the tissue harvest, the left tibiae were excised and cleaned for cortical histomorphometry measurements. After all skin and muscle were removed, tibiae were placed in 70% ethanol 4° C.) in the dark for a minimum of 24 hours.
Ground transverse sections were used for histomorphometric analysis of cortical bone. Bones were sectioned using a low-speed saw (Isomet, Buehler, Lake Bluff, Ill.) equipped with a diamond wafer blade. The end of each tibia was removed proximal to tibia-fibula synostosis and a […] cross-section was cut. Using a roughened glass plate and a cork, sections were ground to […] until transparent and all labels were distinguishable under a fluorescent microscope. Sections were dehydrated using the following solutions for a minimum of two minutes each: 1) 70% ethanol, 2) 95% ethanol, 3) 100% ethanol, 4) 50/50 ethanol/xylene, and 5) xylene (twice) (#534056; Sigma-Aldrich, St. Louis, Mo.). Sections were mounted using Eukitt Quick Mounting Medium (#03989, Sigma-Aldrich, St. Louis, Mo.) after which coverslip was applied. Using the Osteomeasure Bone Analysis Program (Osteometrics, Inc., Decatur, Ga.), bone formation rate was calculated by tracing the 1st and […] fluorescent labels and the inner and outer perimeter of the bone. Bone formation rate was calculated by the following equation: (Inter-label width/Label interval)*(Labeled perimeter/Bone perimeter). At least five samples were measured from each treatment group in each study.

C[C@]12C=CC(=O)C=C1CC[C@@H]1[C@@H]2[C@@H](O)C[C@@]2(C)[C@H]1CC[C@]2(O)C(=O)CO [Prednisolone]
TNFα Suppression (ED80 dose) (LPS-induced serum TNFα): 2.10 mg/kg | Serum osteocalcin EAUC50 (Serum osteocalcin; AUC 0-4 hr): 560 ng·h/mL | Serum osteocalcin EAUC80 (Serum osteocalcin; AUC 0-4 hr): 1600 ng·h/mL | Osteocalcin Suppression (ED80 dose) (Serum osteocalcin; oral gavage 28 days, serum osteocalcin): 6.80 mg/kg | Cortical bone formation rate (BFR) EAUC50 [1]: 90 ng·h/mL | Cortical bone formation rate (BFR) EAUC80 [1]: 600 ng·h/mL
